Source: US20040005537A1, “Method of identifying toxic agents using differential gene expression” (priority 2000, published 2004)

What was measured:
rat heart tissue = assay: GENECALLING differential gene expression analysis after dosing of serotonin modulating agents; format: in vivo, Sprague Dawley rats
Summary of the method: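 Rats dosed with serotonin modulating agents, controls given sterile water or canola oil; tissue taken 24 h after the last dose. Total RNA converted to cDNA and profiled by GENECALLING differential expression analysis; fragments changed more than ±1.5-fold were selected.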

[1] = grouping used to generate the distinguishing gene profiles; cited from earlier work

SMILES: CN1C[C@H](C(=O)N[C@]2(C)O[C@@]3(O)[C@@H]4CCCN4C(=O)[C@H](Cc4ccccc4)N3C2=O)C[C@@H]2c3cccc4[nH]cc(c34)C[C@H]21 [dihydroergotamine]
- Effects on Transcription Level: Novel gene fragment, 535 bp, 90% SI to mouse slow/cardiac troponin C [M29793] (rat heart tissue; CARDIOTOX 71): −1.7 fold
- Effects on Transcription Level: Novel gene fragment, 445 bp, 85% SI to human skeletal muscle alpha 2 actinin [M86406] (rat heart tissue; CARDIOTOX 72): −2.0 fold
- Effects on Transcription Level: Novel gene fragment, 246 bp, 89% SI to mouse ponsin-1 [AF078667] (rat heart tissue; CARDIOTOX 73): −3.5 fold
- Effects on Transcription Level: Novel gene fragment, 126 bp, 77% SI to human DNA sequence from cosmid V311G7, between markers DXS366 and DXS87 on chromosome X [Z69304] (rat heart tissue; CARDIOTOX 74): +1.8 fold
- Effects on Transcription Level: Novel gene fragment, 370 bp (rat heart tissue; CARDIOTOX 75): −2.0 fold
- Effects on Transcription Level: Novel gene fragment, 337 bp, 78% SI to novel human protein AHNAK [M80899] (rat heart tissue; CARDIOTOX 76): −4.1 fold
- Effects on Transcription Level: Novel gene fragment, 100 bp, 93% SI to human KIAA0750 protein [ABO18293] (rat heart tissue; CARDIOTOX 77): −9.3 fold
- Effects on Transcription Level: Novel gene fragment, 44 bp (rat heart tissue; CARDIOTOX 78): −9.0 fold
- Effects on Transcription Level: Novel gene fragment, 698 bp, 93% SI to mouse plenty-of-prolines-101 [AF062655] (rat heart tissue; CARDIOTOX 79): −1.9 fold
- Effects on Transcription Level: Novel gene fragment, 660 bp, 84% SI to mouse membrane protein TMS-2 [AF181685] (rat heart tissue; CARDIOTOX 80): −3.0 fold
- Effects on Transcription Level: Novel gene fragment, 115 bp (rat heart tissue; CARDIOTOX 81): −7.5 fold
- Effects on Transcription Level: Novel gene fragment, 294 bp, 95% SI to mouse Ndr1 related protein Ndr2 [AB033921] (rat heart tissue; CARDIOTOX 82): −3.3 fold
- Effects on Transcription Level: Novel gene fragment, 198 bp (rat heart tissue; CARDIOTOX 83): +2.6 fold
- Effects on Transcription Level: Novel gene fragment, 730 bp, 86% SI to mouse E800 [Y10968] (rat heart tissue; CARDIOTOX 84): −1.7 fold
- Effects on Transcription Level: Novel gene fragment, 294 bp, 98% SI to cysteine conjugate beta-lyase [S61960] (rat heart tissue; CARDIOTOX 85): −1.7 fold
- Effects on Transcription Level: Aconitase (rat heart tissue; CARDIOTOX 86, GenBank A1243266): −3.2 fold
- Effects on Transcription Level: Ribosomal protein L7 (rat heart tissue; CARDIOTOX 87, GenBank M17422): +2.7 fold
- Effects on Transcription Level: Ribosomal protein L9 (rat heart tissue; CARDIOTOX 88, GenBank X51706): +5.0 fold
- Effects on Transcription Level: Ribosomal protein L12 (rat heart tissue; CARDIOTOX 89, GenBank X53504): −2.0 fold
- Effects on Transcription Level: 18S, 5.8S, and 28S ribosomal RNA's (rat heart tissue; CARDIOTOX 90, GenBank V01270): +2.6 fold
- Effects on Transcription Level: Pyruvate dehydrogenase kinase 2 (PDK2) (rat heart tissue; CARDIOTOX 91, GenBank U10357): −5.8 fold
- Effects on Transcription Level: D-Binding Protein (DBP) (rat heart tissue; CARDIOTOX 92, GenBank J03179): −1.5 fold
- Effects on Transcription Level: Lipoprotein lipase (rat heart tissue; CARDIOTOX 93, GenBank L03294): −2.2 fold
- Effects on Transcription Level: Non-neuronal enolase (rat heart tissue; CARDIOTOX 94, GenBank X02610): +3.1 fold
- Effects on Transcription Level: Glycogen phosphorylase (muscle isozyme) (rat heart tissue; CARDIOTOX 95, GenBank L10669): −2.7 fold
- Effects on Transcription Level: Cytochrome c oxidase subunit IV (rat heart tissue; CARDIOTOX 96, GenBank X14209): +4.1 fold
- Effects on Transcription Level: Alpha-globin (rat heart tissue; CARDIOTOX 97, GenBank M17083): +3.9 fold
- Effects on Transcription Level: Beta-globin (rat heart tissue; CARDIOTOX 98, GenBank X06701): +3.3 fold
- Effects on Transcription Level: Myoglobin (rat heart tissue; CARDIOTOX 99, GenBank AF197916): +3.9 fold
- Effects on Transcription Level: Titin (rat heart tissue; CARDIOTOX 100, GenBank L38717): −5.4 fold
- Effects on Transcription Level: Skeletal muscle actin (rat heart tissue; CARDIOTOX 101, GenBank V01218): −14.3 fold
- Effects on Transcription Level: Myosin light chain 2 (MLC2) (rat heart tissue; CARDIOTOX 102, GenBank M11851): −1.5 fold
- Effects on Transcription Level: Alpha cardiac myosin heavy chain (rat heart tissue; CARDIOTOX 103, GenBank X15938): −2.5 fold
- Effects on Transcription Level: Troponin I (rat heart tissue; CARDIOTOX 104, GenBank U77354): +1.5 fold
- Effects on Transcription Level: Cardiac calsequestrin (rat heart tissue; CARDIOTOX 105, GenBank AF001334): −2.1 fold
- Effects on Transcription Level: Sulfated glycoprotein 2 (rat heart tissue; CARDIOTOX 106, GenBank M16975): −1.6 fold
- Effects on Transcription Level: Aquaporin 7 (rat heart tissue; CARDIOTOX 107, GenBank AB000507): +1.7 fold
- Effects on Transcription Level: Carnitine/acylcarnitine carrier protein (rat heart tissue; CARDIOTOX 108, GenBank X97831): −2.8 fold
- Effects on Transcription Level: Glu-Pro Dipeptide Repeat (rat heart tissue; CARDIOTOX 109, GenBank U40628): −5.1 fold
- Effects on Transcription Level: Cystatin beta (rat heart tissue; CARDIOTOX 110, GenBank X54737): +2.6 fold
- Effects on Transcription Level: Novel gene fragment, 593 bp, 90% SI to human calcineurin B-like protein [Z08983] (rat heart tissue; CARDIOTOX 111): +1.7 fold
- Effects on Transcription Level: Novel gene fragment, 179 bp, 88% SI to human titin [X90568] (rat heart tissue; CARDIOTOX 112): +6.0 fold
- Effects on Transcription Level: Novel gene fragment, 700 bp, 91% SI to mouse periplakin (PPL) [AF116523] (rat heart tissue; CARDIOTOX 113): +1.7 fold
- Effects on Transcription Level: Long chain acyl-CoA dehydrogenase (LCAD) (rat heart tissue; CARDIOTOX 114, GenBank J05029): +1.5 fold
- Effects on Transcription Level: Sulfated glycoprotein 1 (SGP-1) (rat heart tissue; CARDIOTOX 115, GenBank M19936): −1.7 fold
- Effects on Transcription Level: Catalase (rat heart tissue; CARDIOTOX 116, GenBank M11670): +1.6 fold
- Effects on Transcription Level: Alpha-fodrin (A2A) (Nonerythroid spectrin alpha subunit) (rat heart tissue; CARDIOTOX 117, GenBank AF084186): −1.5 fold
- Effects on Transcription Level: Cardiac specific sodium channel alpha-subunit (rat heart tissue; CARDIOTOX 118, GenBank M27902): −1.6 fold
- Effects on Transcription Level: Glu-Pro Dipeptide Repeat (rat heart tissue; CARDIOTOX 119, GenBank U40628): +1.9 fold
- Effects on Transcription Level: Novel gene fragment, 200 bp, 64% SI to human KIAA0733 protein [AB018316] (rat heart tissue; CARDIOTOX 120): −1.2 fold
- Effects on Transcription Level: RNA polymerase II transcription factor SIII (p18 subunit) (rat heart tissue; CARDIOTOX 121, GenBank L42855): +1.4 fold
- Effects on Transcription Level: Protein-tyrosine phosphalase (LRP) (rat heart tissue; CARDIOTOX 122, GenBank L01702): +1.4 fold
- Effects on Transcription Level: Skeletal muscle selenoprotein W (SelW) (rat heart tissue; CARDIOTOX 123, GenBank U25264): −1.4 fold
- Effects on Transcription Level: Sarcoplasmic reticulum 2+-Ca-ATPase (rat heart tissue; CARDIOTOX 124, GenBank X15635): −1.2 fold
- Effects on Transcription Level: Ribosomal protein S7 (rat heart tissue; CARDIOTOX 125, GenBank X53377): +1.7 fold
- Effects on Transcription Level: Ribophorin I (rat heart tissue; CARDIOTOX 126, GenBank X05300): +1.5 fold
- Effects on Transcription Level: Beta cardiac myosin heavy chain (rat heart tissue; CARDIOTOX 127, GenBank X15939): −1.6 fold
- Effects on Transcription Level: ADP-ribosylation factor 1 (rat heart tissue; CARDIOTOX 128, GenBank L12380): +1.3 fold
- Effects on Transcription Level: Laminin receptor (rat heart tissue; CARDIOTOX 129, GenBank U04942): +1.1 fold
- Effects on Transcription Level: Novel gene fragment, 206 bp, 89% SI to human seryl-tRNA synthetase [X91257] (rat heart tissue; CARDIOTOX 130): +2.0 fold
- Effects on Transcription Level: Annexin VI (rat heart tissue; CARDIOTOX 131, GenBank X86086): +3.5 fold
- Effects on Transcription Level: Novel gene fragment, 325 bp, 90% SI to mouse N-RAP [U76618] (rat heart tissue; CARDIOTOX 132): +1.4 fold
- Effects on Transcription Level: Novel gene fragment, 61 bp (CARDIOTOX 134) (rat heart tissue; LD10 dose for three days): −1.1 fold
- Effects on Transcription Level: Novel gene fragment, 337 bp (CARDIOTOX 133) (rat heart tissue; LD10 dose for three days): −1.2 fold
- Effects on Transcription Level: Novel gene fragment, 378 bp, 88% SI to human coatomer protein (COPA) [U24105] (CARDIOTOX 138) (rat heart tissue; LD10 dose for three days): +1.2 fold
- Effects on Transcription Level: Long chain 3-ketoacyl-CoA thiolase (CARDIOTOX 136) (rat heart tissue; LD10 dose for three days, GenBank D16479): −1.2 fold
- Effects on Transcription Level: TATA-binding protein interacting protein 120 (TIP120) (CARDIOTOX 135) (rat heart tissue; LD10 dose for three days, GenBank D87671): +1.1 fold
- Effects on Transcription Level: Serine protease (CARDIOTOX 139) (rat heart tissue; LD10 dose for three days, GenBank D88250): +1.2 fold
- Effects on Transcription Level: Thymosin beta-4 (CARDIOTOX 137) (rat heart tissue; LD10 dose for three days, GenBank M34043): +1.6 fold
- classification as cardiotoxic or noncardiotoxic serotonin modulating agent [1]: cardiotoxic
